# Measured values as given in US8076324B2, “Di(hetero)arylcyclohexane derivatives, their preparation, their use and pharmaceutical compositions comprising them” (Sanofi-Aventis, priority 2007, dated 2011).
# Assays:
# [1] = molecular target: T1, myocardial ATP-sensitive potassium channel (SUR2A/Kir6.2) (UniProt Q61743+Q63563); test: Rubidium efflux test on HEK293 cells transfected with SUR2A and Kir6.2 (myocardial action); assay type: cell-based, SUR2A from the rat, Kir6.2 from the mouse; settings: HEK293 cells transfected with SUR2A/Kir6.2; KATP channels opened by rilmakalim; 25 min incubation; read-out: IC50 values for the inhibition of the rubidium efflux
# T1 construct: expressed in transfected cells
# T1 sequence (Q63563 whole entry): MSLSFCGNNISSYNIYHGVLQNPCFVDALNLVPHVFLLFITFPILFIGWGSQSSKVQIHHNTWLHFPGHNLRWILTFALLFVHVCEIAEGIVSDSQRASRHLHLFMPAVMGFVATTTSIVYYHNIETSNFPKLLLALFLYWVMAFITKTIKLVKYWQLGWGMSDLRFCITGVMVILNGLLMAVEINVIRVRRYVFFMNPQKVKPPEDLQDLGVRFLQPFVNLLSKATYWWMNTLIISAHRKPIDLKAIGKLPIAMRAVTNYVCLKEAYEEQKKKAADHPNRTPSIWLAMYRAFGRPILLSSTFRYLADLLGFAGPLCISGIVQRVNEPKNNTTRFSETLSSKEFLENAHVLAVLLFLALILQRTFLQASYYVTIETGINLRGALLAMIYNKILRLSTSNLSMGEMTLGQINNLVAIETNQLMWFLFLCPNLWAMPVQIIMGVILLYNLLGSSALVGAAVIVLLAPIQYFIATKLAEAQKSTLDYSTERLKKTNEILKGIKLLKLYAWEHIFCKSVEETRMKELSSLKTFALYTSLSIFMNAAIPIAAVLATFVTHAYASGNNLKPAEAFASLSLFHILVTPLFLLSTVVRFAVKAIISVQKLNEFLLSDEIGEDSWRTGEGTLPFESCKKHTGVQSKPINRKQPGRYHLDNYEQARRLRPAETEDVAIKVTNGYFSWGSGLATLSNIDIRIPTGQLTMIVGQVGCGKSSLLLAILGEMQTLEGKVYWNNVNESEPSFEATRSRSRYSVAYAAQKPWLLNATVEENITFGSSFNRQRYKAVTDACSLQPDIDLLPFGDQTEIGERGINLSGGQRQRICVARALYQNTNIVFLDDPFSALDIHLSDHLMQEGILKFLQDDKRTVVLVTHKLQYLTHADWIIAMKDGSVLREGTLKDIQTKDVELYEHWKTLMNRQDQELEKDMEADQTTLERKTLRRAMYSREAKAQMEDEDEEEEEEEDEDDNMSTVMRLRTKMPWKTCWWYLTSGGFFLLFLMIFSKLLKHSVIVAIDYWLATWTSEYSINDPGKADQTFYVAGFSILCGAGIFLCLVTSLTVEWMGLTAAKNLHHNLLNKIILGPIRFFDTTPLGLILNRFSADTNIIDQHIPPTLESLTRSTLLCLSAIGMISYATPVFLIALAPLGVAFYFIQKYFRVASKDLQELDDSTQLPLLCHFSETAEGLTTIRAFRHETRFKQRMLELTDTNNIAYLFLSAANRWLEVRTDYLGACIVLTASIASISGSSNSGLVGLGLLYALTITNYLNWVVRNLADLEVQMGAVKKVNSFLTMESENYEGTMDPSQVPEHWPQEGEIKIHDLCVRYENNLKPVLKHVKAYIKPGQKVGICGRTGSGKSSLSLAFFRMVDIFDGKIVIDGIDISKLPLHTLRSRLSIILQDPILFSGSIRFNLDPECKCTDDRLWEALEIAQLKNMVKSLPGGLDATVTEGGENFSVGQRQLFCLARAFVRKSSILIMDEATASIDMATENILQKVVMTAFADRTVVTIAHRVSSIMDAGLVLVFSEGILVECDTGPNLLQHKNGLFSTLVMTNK
# T1 sequence (Q61743 whole entry): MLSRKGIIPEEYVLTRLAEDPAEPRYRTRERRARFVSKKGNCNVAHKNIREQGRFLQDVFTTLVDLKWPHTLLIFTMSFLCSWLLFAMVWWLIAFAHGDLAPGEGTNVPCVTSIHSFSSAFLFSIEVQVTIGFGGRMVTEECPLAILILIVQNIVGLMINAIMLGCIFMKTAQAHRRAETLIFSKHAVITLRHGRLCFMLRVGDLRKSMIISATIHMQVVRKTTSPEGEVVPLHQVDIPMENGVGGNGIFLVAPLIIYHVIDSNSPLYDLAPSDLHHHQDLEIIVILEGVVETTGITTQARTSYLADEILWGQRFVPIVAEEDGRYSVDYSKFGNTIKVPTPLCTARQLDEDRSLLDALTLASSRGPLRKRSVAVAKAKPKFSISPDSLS
# Procedure, shortened: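 HEK293 cells stably expressing mouse Kir6.2 and rat SUR2A loaded 3 h at 37 °C with 5.4 mM RbCl, then test compound added and channels opened with rilmakalim (2 μM, stock as added) for 25 min at 37 °C. Rb+ in supernatant and lysate by atomic absorption; efflux = supernatant/total, IC50 via Hill equation.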
IC50 [1] [nM],melting point [°C],Compound
< 1000,187,"Cc1cnc([C@]2(OCC3CC3)CC[C@](C(=O)O)(c3ccc(F)cc3)CC2)n1CC1CC1 [Example 357, Cis-4-Cyclopropylmethoxy-4-(1-cyclopropylmethyl-5-methyl-1H-imidazol-2-yl)-1-(4-fluorophenyl)cyclohexanecarboxylic Acid]"
< 1000,198,"CS(=O)(=O)c1cccc(-c2nc([C@]3(Oc4ccccc4)CC[C@@](C(=O)O)(c4ccccc4)CC3)n(CC3CC3)n2)c1 [Example 463, Trans-4-[2-Cyclopropylmethyl-5-(3-methanesulfonylphenyl)-2H-[1,2,4]triazol-3-yl]-4-phenoxy-1-phenylcyclohexanecarboxylic Acid]"
< 1000,170,"Cc1nc([C@]2(Oc3ccccc3)CC[C@](C(=O)O)(c3ccccc3)CC2)n(CC2CC2)c1Cl [Example 400, Cis 4-(5-Chloro-1-cyclopropylmethyl-4-methyl-1H-imidazol-2-yl)-4-phenoxy-1-phenylcyclohexanecarboxylic Acid]"

# The remaining lines, values behind:
Compound,IC50 [1] [nM],melting point [°C]
"O=C(O)[C@]1(c2ccccc2)CC[C@@](Oc2ccc(C(F)(F)F)cc2)(c2nc(-c3ccccc3)n(CC3CC3)n2)CC1 [Example 474, Cis-4-(1-Cyclopropylmethyl-5-phenyl-1H-[1,2,4]triazol-3-yl)-1-phenyl-4-(4-trifluoromethylphenoxy)cyclohexanecarboxylic Acid]",< 1000,85
"CS(=O)(=O)n1c2ccccc2cc1[C@]1(OCC2CC2)CC[C@](C(=O)O)(c2ccccc2)CC1 [Example 440, Cis-4-Cyclopropylmethoxy-4-(1-methanesulfonyl-1H-indol-2-yl)-1-phenylcyclohexanecarboxylic Acid]",< 1000,152
"Cc1nc([C@]2(OCC3CC3)CC[C@](C(=O)O)(c3ccc(F)cc3)CC2)n(CC2CC2)c1Cl [Example 363, Cis-4-(5-Chloro-1-cyclopropylmethyl-4-methyl-1H-imidazol-2-yl)-4-cyclopropylmethoxy-1-(4-fluorophenyl)cyclohexanecarboxylic Acid]",< 1000,184
"O=C(O)[C@]1(c2ccc(F)cc2)CC[C@](Oc2ccccc2)(c2ccc(F)cn2)CC1 [Example 345, Trans-1-(4-Fluorophenyl)-4-(5-fluoropyridin-2-yl)-4-phenoxycyclohexanecarboxylic Acid]",< 1000,237
